# pIC50: −log10 of the molar value.
# Key:
# Type in all cases: functional
# Cavia porcellus [1] = organism: Cavia porcellus; assay: The compound was tested for hypotensive activity against guinea pig vascular tissue (portal vein) strip mildly depolarized with 15 mM KCl
# Rattus norvegicus = assay: Tested for lowering of blood pressure in spontaneously hypertensive rat model upon oral administration at 5 ug/kg
# Cavia porcellus [2] = organism: Cavia porcellus; assay: Tested for percent increase of efflux rate constant of 0.233 uM of compound using guinea pig detrusor
# Cavia porcellus [3] = organism: Cavia porcellus; assay: The compound was tested for hypotensive activity against guinea pig detrusor (bladder) strip mildly depolarized with 15 mM KCl
pIC50 (Cavia porcellus [3]),Compound,also measured
–,O=[N+]([O-])c1ccc2c(c1)N(c1cccc[n+]1[O-])CC(C(F)F)(C(F)F)O2,pIC50 (Cavia porcellus [1]): 9.22; Blood pressure (Rattus norvegicus): 35 mmHg; Increase (Cavia porcellus [2]): 40.5%
7.13,CC1(C)CN(c2cccc[n+]2[O-])c2cc([N+](=O)[O-])ccc2O1,–
9.27,CC1(C(F)(F)F)CN(c2cccc[n+]2[O-])c2cc(S(=O)(=O)c3ccccc3)ccc2O1 (racemic),–
9.55,C[C@@]1(C(F)(F)F)CN(c2cccc[n+]2[O-])c2cc(S(=O)(=O)c3ccccc3)ccc2O1,–
8.39,CC1(C)CN(c2cccc[n+]2[O-])c2cc(S(=O)(=O)c3ccccc3)ccc2O1,–
9.17,C[C@]1(C(F)(F)F)CN(c2cccc[n+]2[O-])c2cc(S(=O)(=O)c3ccccc3)ccc2O1,–

# Source: ChEMBL document CHEMBL1150458, “A highly potent series of fluoroalkyl benzoxazine pyridine-N-oxide potassium channel openers” (Bioorg Med Chem Lett, 1993)
